One data set concerns BJ CETP siRNA cells. Kind of data set: Cholesterol levels in BJ CETP siRNA cells. In kind it is cell-based, human. The following applies: treated with PL or AP or left untreated.
The subject of data set [1] is MCF-7 cells. Description: Total cholesterol in cells, Amplex Red Cholesterol kit. It counts as cell-based, human. The note with it: 10 μM, within 2 h, compared to untreated cells. On the procedure: (§1) FIG. 5: Cholesterol depletion by PL and AP. BJ, BT20 and MCF-7 cells were treated with 10 μM PL or AP for 2 h and cholesterol levels were determined with the Amplex Red Cholesterol kit as per manufacturer's instructions. Cells treated with 5 mg/ml MBCD was used as a positive control and fluorescence was measured with a Tecan plate reader. MCF-7 cells were pre-incubated with 1 mM cholesterol for 1 h followed by treatment with 10 μM PL or AP for 2 h (A). Apoptosis was determined by flow cytometry with the APOPercentage kit or Cells treated with MBCD and 5 mM H2O2 served as positive controls (B). Values represent the means±SD of three independent experiments.
Next, we determined the effects of PL and AP on cholesterol levels in cells. Within 2 h of treatment with PL or AP, total cholesterol was reduced by 35% in MCF-7 cells as compared to untreated cells (FIG. 5). To test whether cholesterol depletion occurred in other cell types or if this was limited to ER positive BC cells, BJ and BT20 cells were also treated with PL or AP (Fig.).

The nature of data set [2]: Toxicity in MCF-7 xenograft nude mice (survival, body weight, ALT, AST). The following applies: for survival of animals: 5 animals per group.
Method: FIG. 3: Comparative efficacy and toxicity study in MCF-7 xenograft nude mouse model of BC. The efficacy of single i.p. injection of vehicle, PL (2 mg/kg) and AP (5 mg/kg) in 5 mice in each group was compared over a period of 21 days.
MCF-7 tumors grown up to 300 mm3 in four nude mice were harvested, dissected into 1-2 mm3 fragments and implanted into the study group for further testing. Nude mice (with tumor volume of 150 mm3) were treated with 25% Polyethylene glycol (PEG) 400 as vehicle, 2 mg/kg PL and 5 mg/kg AP for 21 days during which tumor volume, body weight and, at the time of sacrifice, tumor weight was measured.
The subject of data set [3] is MCF-7 cells. Kind of data set: APOPercentage assay, apoptosis in MCF-7 cells. It counts as cell-based, human. The following applies: 10 μM. How it is done:
as §1
Next we asked if addition of cholesterol can rescue MCF-7 cells from undergoing apoptosis when treated with PL or AP.

The next data set deals with MCF-7 CETP siRNA cells. Description: Total cholesterol in CETP knock-out MCF-7 cells, Amplex Red. The following applies: 10 μM. It counts as cell-based, human. How it is done:
FIG. 8: Levels of total cholesterol in MCF-7 control (cntl) siRNA and CETP knock-out cells after treatment with 10 μM PL or AP were determined with the Amplex Red assay kit. Values represent the means±SD of three independent experiments.
We measured the amount of cholesterol in CETP knock-out MCF-7 untreated and/or treated with 10 μM AP and PL. […] (FIG. 8).

Data set [4] relates to MCF-7 cells. Kind of data set: MTT assay, viability of MCF-7 cells. The following applies: for effect on cell viability: 1 and 2.5 μM, 24 h. On the procedure: FIG. 1: MTT and APOPercentage assays to assess the differential cytotoxicity and apoptosis inducing potential of AP and PL in MCF-7 cells. Viability was determined using MTT assay after incubating the MCF-7 cells with different concentrations of AP and PL (A), at different time-points (B). The apoptosis inducing potential of 10 μM AP and PL in MCF-7 was determined by using APOPercentage assay performed at intervals of 2 and 6 h.
The activities of a compound described herein can be evaluated by methods known in the art, e.g., MTT (3-[4,5-dimethylthiazol-2-yl]-2,5-diphenyltetrazolium bromide) assay, APOPercentage, clonogenic assay, ATP assay, or Extreme Drug Resistance (EDR) assay. See Freuhauf, J. P. and Manetta, A., Chemosensitivity Testing in Gynecologic Malignancies and Breast Cancer 19, 39-52 (1994), which is incorporated by reference in its entirety. The results are then plotted to generate drug response curves, which allow IC50 values (the concentration of a compound required to inhibit 50% of the population of the treated cells) to be determined. […] In general, however, a dose can be in the range of from about 0.01 to about 10 mg/kg of body weight per day.
As a first step, MCF-7 cells were treated with 1, 2.5, 5 and 10 μM PL or AP for 24 h and percentage viability was determined after 24 h using the MTT assay. […] Next the effect of 10 μM PL drug on cell viability over time was determined. […] The percentage of cells undergoing apoptosis at the early time points i.e. 2 and 6 h was determined by the APOPercentage assay. APOPercentage dye binds to extracellularly exposed phosphatidylserine (PS) on the plasma membrane of apoptotic cells.

A further data set concerns the target T1, CETP (Homo sapiens, UniProt P11597).
T1 construct: endogenous in cells; host or cells: MCF-7
T1 sequence (P11597 18-493): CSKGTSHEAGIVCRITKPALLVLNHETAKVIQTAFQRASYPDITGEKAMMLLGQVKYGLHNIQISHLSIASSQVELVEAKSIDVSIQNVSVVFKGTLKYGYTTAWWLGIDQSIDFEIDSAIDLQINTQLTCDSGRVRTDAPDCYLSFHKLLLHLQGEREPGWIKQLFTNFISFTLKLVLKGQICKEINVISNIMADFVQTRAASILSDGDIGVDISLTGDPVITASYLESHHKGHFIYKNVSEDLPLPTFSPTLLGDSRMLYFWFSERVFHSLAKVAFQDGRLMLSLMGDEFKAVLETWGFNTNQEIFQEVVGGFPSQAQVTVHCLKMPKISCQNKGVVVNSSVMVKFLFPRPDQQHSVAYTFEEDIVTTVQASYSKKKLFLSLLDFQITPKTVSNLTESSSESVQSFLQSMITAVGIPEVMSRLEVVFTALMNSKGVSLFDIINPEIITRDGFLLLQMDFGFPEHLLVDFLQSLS
Kind of data set: Thermal shift assay (TSA) in MCF-7 cells. It counts as binding. The following applies: 10 μM, two hours, 56° C. to 70° C.; untreated decreases around 64° C. On the procedure:
FIG. 14: Illustration of the amount of stabilized CETP protein in the presence of compounds using TSA. MCF-7 cells were left untreated (Untx) and were treated with 10 μM of AP/PL for two hours. TSA was performed using temperature range 56° C. to 70° C. with 2° C. intervals. The western blotting was performed after the assay and CETP was detected. The experiment was performed in duplicate.
Thermal shift assay (TSA) captures the drug protein binding using the fact that the thermostability of the protein is changed after ligand binding. We did three runs of TSA [20] to identify direct binding of AP with CETP (FIG. 14). […] Further studies are needed to study the effects of thermostability on function of CETP.

The mark [5] stands for this setting: 2 mg/kg PL, 5 mg/kg AP, 21 days.
The mark [6] stands for this setting: 2 h, after pre-incubation with 1 mM cholesterol for 1 h.
Where [7] appears, read: 2 h, without addition of cholesterol.

The source of these data is patent publication US10485769B2, “Cholesteryl ester transfer protein (CETP) inhibition in the treatment of cancer” (KING ABDULLAH UNIVERSITY OF SCIENCE AND TECHNOLOGY, priority 2015, dated 2019).

Regarding `CC(=O)Oc1cccc2c1C(=O)C=C(C)C2=O` [AP, Acetyl Plumbagin], in the data set with BJ CETP siRNA cells, the cholesterol levels entry is “No significant changes”. The “reduction of total cholesterol” value in the data set on MCF-7 cells [1] is 35%. Moreover, the survival of animals result in data set [2] (setting [5]) is “survived”. For the same compound, in data set [2] (5 mg/kg AP), the “reduction of ALT activity” value is 36%. Also, the “reduction of AST activity” value in data set [2] (5 mg/kg AP) was 7%. In data set [2] (5 mg/kg AP, 21 days), the body weight result is listed as “remained unaffected”. Moreover, the results for the level of apoptosis in the data set on MCF-7 cells [3] (2 h) and in the data set with MCF-7 cells [3] (6 h) were about 20% and about 45%, respectively. In addition, the apoptosis entry with MCF-7 cells [3] (setting [6]) is on record as “negligible”; in the data set with MCF-7 cells [3] (setting [7]), 20%. The “total cholesterol in knock-out cells versus control siRNA cells” value in the data set with MCF-7 CETP siRNA cells is listed as “did not show results any different”. In addition, the “cell viability reduced to” value in the data set on MCF-7 cells [4] (10 μM, as early as 6 h) was determined as 50%. In addition, the “effect on cell viability” value in the data set with MCF-7 cells [4] is “no significant effect”. Moreover, the “thermostability of CETP protein” value at CETP is “more stable even at 70 °C”.
Broadly, the viability is a per cent measure of how many cells are alive, often set against a control. Turning to `CC1=CC(=O)c2c(O)cccc2C1=O` [PL, 5-hydroxy-2-methyl-1,4-naphthoquinone, reference compound], the cholesterol levels entry with BJ CETP siRNA cells is on record as “No significant changes”. Further, in the data set on MCF-7 cells [1], the “reduction of total cholesterol” value was determined as 35%. Further, in data set [2] (2 mg/kg PL), the ALT activity result was “increased”. The AST activity entry in data set [2] (2 mg/kg PL) was “increased”. The survival of animals entry in data set [2] (setting [5]) is “one mouse died”. Also, in data set [2] (5 mg/kg PL, within four to six days), the “mice succumbed to treatment due to toxicity” value turned out to be 8 mice. The level of apoptosis is reported as about 20% in the data set with MCF-7 cells [3] (2 h) and about 45% with MCF-7 cells [3] (6 h). In addition, the apoptosis in the data set on MCF-7 cells [3] (setting [6]) was determined as 10%; in the data set with MCF-7 cells [3] (setting [7]), 30%. Besides, the “total cholesterol in knock-out cells versus control siRNA cells” value in the data set with MCF-7 CETP siRNA cells is on record as “did not show results any different”. Further, the “effect on cell viability” value with MCF-7 cells [4] is reported as “no significant effect”. Also, in the data set on MCF-7 cells [4] (Homo sapiens, MCF7, 6 h, read-out: cell viability reduced to), the viability at 10 µM stood at 50%. The “thermostability of CETP protein” value at CETP was “more stable even at 70 °C”.
